Experiments:
[1] = tested on: RAF proto-oncogene serine/threonine-protein kinase (Homo sapiens), P04049 [Y340D,Y341D]; assay: Residual activity of RAF1 Y340D/Y341D mutant at 1 uM by microplate scintillation counting
[2] = biological target: SRSF protein kinase 1 (Homo sapiens) (UniProt Q96SB4); assay: Residual activity of SRPK1 at 0.1 uM by microplate scintillation counting
[3] = biological target: T1, MAP kinase-activated protein kinase 5 (Homo sapiens) (UniProt Q8IW41); assay: Residual activity of MAPKAPK5 at 0.1 uM by microplate scintillation counting
T1 sequence (whole entry): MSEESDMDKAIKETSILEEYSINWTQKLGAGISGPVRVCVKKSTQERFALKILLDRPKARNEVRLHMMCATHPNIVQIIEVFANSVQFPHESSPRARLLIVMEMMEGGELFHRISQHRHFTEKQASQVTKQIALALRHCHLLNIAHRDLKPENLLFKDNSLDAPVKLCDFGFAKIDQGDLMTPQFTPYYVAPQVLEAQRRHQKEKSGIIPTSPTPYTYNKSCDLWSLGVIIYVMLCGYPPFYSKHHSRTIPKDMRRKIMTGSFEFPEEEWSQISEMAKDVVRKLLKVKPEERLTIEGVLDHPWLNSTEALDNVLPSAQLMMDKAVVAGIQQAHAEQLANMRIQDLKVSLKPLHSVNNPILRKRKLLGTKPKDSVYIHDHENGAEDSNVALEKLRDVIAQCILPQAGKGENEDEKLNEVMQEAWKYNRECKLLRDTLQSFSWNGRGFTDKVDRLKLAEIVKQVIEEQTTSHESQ

[4] = biological target: Mast/stem cell growth factor receptor Kit (Homo sapiens) (UniProt P10721); assay: Residual activity of wild type KIT at 0.1 uM by microplate scintillation counting
Sequence of Mast/stem cell growth factor receptor Kit (Homo sapiens) (P10721 whole entry): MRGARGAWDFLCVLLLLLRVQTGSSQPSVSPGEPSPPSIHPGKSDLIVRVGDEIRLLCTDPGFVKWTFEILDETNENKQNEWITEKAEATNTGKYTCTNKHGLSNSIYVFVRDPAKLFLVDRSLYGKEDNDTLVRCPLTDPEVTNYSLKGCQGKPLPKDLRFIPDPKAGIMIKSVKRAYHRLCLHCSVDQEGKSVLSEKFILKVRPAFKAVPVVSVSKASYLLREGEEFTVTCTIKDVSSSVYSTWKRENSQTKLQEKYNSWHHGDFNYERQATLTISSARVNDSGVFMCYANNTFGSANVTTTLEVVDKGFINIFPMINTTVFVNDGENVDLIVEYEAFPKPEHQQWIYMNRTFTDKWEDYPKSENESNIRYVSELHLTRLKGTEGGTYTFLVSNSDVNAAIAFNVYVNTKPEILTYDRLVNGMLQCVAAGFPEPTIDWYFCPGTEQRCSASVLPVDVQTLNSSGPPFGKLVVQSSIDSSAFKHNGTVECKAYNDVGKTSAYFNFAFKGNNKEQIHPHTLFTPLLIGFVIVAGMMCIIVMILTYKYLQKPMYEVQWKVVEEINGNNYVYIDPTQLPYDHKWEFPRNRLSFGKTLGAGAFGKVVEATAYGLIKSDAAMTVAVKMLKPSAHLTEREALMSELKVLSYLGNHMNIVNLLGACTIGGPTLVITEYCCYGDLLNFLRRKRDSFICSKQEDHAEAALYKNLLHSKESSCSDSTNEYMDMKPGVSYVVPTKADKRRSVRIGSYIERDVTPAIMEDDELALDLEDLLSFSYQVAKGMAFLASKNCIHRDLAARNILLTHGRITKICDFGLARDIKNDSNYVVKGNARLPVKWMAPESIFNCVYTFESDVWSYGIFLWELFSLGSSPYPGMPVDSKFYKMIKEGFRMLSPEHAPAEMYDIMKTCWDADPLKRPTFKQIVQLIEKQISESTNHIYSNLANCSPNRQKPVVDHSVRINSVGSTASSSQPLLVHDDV

[5] = biological target: Protein-tyrosine kinase 2-beta (Homo sapiens) (UniProt Q14289); assay: Residual activity of PYK2 at 10 uM by microplate scintillation counting
Sequence of Protein-tyrosine kinase 2-beta (Homo sapiens) (Q14289 whole entry, looked up): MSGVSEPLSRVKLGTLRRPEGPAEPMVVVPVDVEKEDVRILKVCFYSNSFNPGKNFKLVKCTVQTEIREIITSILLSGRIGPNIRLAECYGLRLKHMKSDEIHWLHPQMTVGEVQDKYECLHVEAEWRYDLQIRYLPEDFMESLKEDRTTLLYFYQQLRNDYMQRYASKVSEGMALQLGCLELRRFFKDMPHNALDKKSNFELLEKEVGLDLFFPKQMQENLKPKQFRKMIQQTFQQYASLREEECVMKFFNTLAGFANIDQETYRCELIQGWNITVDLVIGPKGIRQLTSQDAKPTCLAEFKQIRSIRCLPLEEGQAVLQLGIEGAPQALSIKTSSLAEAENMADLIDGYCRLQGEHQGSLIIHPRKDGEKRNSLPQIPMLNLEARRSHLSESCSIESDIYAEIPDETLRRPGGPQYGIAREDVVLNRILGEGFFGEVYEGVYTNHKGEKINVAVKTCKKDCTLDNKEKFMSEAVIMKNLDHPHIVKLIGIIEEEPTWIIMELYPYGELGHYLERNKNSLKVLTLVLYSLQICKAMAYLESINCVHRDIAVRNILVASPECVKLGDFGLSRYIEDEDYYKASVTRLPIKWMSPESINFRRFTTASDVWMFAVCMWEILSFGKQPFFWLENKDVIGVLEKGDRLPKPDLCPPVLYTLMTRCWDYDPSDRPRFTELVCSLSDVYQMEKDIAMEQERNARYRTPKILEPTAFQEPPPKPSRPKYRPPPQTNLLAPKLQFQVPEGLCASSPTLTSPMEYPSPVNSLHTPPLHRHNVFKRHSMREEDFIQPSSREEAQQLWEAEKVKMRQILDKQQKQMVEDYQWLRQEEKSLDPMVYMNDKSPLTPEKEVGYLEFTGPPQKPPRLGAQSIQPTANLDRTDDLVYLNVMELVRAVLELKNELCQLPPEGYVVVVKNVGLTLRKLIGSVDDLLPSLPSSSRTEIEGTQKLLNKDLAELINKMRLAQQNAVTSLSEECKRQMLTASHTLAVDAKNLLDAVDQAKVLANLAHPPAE

[6] = tested on: T2, Receptor-type tyrosine-protein kinase FLT3 (Homo sapiens), P36888 [D835Y]; assay: Residual activity of FLT3 D835Y mutant at 1 uM by microplate scintillation counting
T2 sequence (whole entry): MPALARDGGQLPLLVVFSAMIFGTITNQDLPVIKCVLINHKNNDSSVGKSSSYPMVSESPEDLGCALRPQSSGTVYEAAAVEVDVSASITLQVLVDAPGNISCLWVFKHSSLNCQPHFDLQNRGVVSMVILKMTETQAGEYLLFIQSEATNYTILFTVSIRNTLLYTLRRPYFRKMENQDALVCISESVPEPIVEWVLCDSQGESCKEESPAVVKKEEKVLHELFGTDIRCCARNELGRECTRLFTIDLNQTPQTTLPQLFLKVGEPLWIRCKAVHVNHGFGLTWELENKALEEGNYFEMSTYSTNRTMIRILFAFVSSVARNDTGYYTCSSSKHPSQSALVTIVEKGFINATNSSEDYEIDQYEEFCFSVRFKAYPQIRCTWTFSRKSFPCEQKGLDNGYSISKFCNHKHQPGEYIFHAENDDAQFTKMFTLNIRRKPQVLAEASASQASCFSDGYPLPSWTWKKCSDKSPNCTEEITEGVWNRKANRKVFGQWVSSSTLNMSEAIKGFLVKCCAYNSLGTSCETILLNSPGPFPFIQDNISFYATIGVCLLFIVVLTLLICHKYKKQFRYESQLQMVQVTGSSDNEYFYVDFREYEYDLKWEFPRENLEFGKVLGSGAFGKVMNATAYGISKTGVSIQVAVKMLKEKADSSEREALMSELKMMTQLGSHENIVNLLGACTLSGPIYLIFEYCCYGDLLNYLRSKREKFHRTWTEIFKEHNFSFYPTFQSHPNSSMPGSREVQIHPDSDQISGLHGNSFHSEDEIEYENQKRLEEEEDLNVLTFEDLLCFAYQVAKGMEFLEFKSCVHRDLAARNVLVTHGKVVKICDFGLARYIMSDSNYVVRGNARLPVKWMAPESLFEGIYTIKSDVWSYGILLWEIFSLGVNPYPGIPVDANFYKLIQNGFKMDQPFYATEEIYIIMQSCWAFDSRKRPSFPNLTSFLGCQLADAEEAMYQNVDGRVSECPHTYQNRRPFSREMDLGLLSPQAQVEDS

[7] = biological target: T3, Serine/threonine-protein kinase D1 (Homo sapiens) (UniProt Q15139); assay: Residual activity of PKCmu at 10 uM by microplate scintillation counting
T3 sequence (whole entry): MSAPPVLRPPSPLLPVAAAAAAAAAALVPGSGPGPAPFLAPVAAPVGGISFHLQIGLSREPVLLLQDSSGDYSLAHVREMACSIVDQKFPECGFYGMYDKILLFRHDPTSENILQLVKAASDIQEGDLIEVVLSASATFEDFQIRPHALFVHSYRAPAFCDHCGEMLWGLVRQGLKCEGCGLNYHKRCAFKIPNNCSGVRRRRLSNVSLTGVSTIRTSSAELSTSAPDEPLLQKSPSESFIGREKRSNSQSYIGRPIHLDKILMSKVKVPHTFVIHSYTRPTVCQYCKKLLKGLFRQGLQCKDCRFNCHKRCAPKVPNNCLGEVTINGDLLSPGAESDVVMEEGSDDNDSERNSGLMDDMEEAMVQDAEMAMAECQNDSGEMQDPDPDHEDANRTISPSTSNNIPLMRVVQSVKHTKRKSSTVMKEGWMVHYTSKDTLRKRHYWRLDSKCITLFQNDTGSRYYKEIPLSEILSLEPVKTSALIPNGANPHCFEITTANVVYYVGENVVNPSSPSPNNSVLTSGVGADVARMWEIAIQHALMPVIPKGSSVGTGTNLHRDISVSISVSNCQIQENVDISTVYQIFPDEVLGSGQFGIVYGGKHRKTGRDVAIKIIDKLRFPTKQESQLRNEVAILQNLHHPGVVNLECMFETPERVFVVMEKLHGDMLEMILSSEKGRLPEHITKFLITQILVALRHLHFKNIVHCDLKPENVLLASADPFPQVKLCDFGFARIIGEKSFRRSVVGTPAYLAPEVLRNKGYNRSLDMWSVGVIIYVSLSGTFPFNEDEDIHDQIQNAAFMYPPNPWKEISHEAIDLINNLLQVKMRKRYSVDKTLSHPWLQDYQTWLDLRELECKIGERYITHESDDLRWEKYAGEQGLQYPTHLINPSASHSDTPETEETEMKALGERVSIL

[8] = biological target: Serine/threonine-protein kinase PAK 4 (Homo sapiens) (UniProt O96013); assay: Residual activity of PAK4 at 0.1 uM by microplate scintillation counting
Sequence of Serine/threonine-protein kinase PAK 4 (Homo sapiens) (O96013 whole entry, looked up): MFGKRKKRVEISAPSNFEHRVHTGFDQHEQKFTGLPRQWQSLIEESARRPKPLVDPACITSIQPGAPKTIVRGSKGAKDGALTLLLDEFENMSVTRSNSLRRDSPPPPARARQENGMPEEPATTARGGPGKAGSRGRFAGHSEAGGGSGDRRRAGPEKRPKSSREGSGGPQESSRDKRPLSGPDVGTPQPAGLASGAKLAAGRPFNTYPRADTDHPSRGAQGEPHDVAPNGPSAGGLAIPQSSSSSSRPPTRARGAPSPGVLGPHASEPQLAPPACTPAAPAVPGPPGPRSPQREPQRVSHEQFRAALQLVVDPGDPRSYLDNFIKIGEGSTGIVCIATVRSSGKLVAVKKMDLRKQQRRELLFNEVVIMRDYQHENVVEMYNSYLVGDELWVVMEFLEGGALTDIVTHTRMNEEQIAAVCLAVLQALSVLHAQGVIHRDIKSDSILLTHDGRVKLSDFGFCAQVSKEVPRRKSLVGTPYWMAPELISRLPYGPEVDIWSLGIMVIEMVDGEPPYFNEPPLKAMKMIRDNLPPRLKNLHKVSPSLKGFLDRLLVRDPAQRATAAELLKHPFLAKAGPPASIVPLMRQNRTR

[9] = biological target: Death-associated protein kinase 3 (Homo sapiens) (UniProt O43293); assay: Residual activity of DAPK3 at 1 uM by microplate scintillation counting
Sequence of Death-associated protein kinase 3 (Homo sapiens) (O43293 whole entry, looked up): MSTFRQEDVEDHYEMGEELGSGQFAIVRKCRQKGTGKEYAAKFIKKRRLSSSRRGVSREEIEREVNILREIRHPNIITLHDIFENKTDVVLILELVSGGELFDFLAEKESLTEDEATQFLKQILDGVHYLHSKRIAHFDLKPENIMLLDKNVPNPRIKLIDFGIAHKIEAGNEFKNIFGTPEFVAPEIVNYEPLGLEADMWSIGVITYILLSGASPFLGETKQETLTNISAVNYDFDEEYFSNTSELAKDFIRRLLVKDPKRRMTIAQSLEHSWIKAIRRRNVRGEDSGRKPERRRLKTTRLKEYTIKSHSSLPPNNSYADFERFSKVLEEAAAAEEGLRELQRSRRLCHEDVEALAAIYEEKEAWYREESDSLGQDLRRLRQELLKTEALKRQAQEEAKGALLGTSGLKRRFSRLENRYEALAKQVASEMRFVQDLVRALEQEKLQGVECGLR

Sequence of SRSF protein kinase 1 (Homo sapiens) (Q96SB4 whole entry): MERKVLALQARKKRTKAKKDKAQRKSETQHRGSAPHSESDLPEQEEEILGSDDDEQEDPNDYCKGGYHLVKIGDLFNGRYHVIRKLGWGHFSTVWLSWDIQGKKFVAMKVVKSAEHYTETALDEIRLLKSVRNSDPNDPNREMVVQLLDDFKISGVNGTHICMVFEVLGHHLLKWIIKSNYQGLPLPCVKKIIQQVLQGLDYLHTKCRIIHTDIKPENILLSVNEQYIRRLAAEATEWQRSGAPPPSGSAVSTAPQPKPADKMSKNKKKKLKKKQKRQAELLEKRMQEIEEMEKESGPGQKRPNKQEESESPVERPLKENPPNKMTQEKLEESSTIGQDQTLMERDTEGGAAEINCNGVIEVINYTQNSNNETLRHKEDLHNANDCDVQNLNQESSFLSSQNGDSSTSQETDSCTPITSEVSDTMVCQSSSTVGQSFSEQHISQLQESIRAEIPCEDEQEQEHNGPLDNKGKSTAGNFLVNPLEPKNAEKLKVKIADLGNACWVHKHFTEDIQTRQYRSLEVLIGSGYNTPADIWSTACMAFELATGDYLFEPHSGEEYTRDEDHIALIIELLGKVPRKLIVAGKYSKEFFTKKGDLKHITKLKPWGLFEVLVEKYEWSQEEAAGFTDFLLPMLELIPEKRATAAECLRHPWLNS

| SMILES | residual activity [1] | residual activity [2] | residual activity [3] | residual activity [4] | residual activity [5] | residual activity [6] | residual activity [7] | residual activity [8] | residual activity [9] |
| --- | --- | --- | --- | --- | --- | --- | --- | --- | --- |
| COc1cc2c(Oc3ccc(-c4nc5ccccc5s4)cc3F)ncnc2cc1OCCCN1CCN(C)CC1 | 104% | 91% | 95% | 96% | 54% | 78% | 111% | 99% | 81% |
| COc1cc2c(Oc3ccc(-c4nc5ccccc5s4)cc3)ncnc2cc1OCCCN1CCCC1 | 90% | 103% | 97% | 101% | 113% | 90% | 126% | 96% | 86% |
| COc1cc2c(Oc3ccc(-c4nc5ccccc5s4)cc3)ncnc2cc1OCCCN1CCN(C)CC1 | 97% | 96% | 124% | 96% | 95% | 95% | 122% | 102% | 84% |

Source: ChEMBL document CHEMBL1152560, “Substituted 2-arylbenzothiazoles as kinase inhibitors: hit-to-lead optimization” (Bioorg Med Chem, 2009)
